Results as given in patent US9174960B2, “Compounds useful against kinetoplastideae parasites” (CENTRE NATIONAL DE LA RECHERCHE SCIENTIFIQUE, priority 2009, dated 2015).
Where a name gives a salt, the structure may show the parent alone. Read-outs that look alike come from different tables or passages of the source.

Columns and labels:
[1] = test system: Trypanosoma brucei brucei CMP (fast strain); assay: Trypanocidal activity in vivo in T. brucei-infected mice; conditions: T. brucei-infected Swiss mice
Protocol: Animals: Swiss mice (female 18-20 g, Janvier, Le Genest St Isle, France) are randomly allocated to groups of 6 animals each. Drinking water and food are available ad libitum throughout the experiment (except when the treatment is given by oral route; in this condition, the treatment is given after 12 h of animal fasting).
Parasite: Trypanosoma brucei brucei CMP (fast strain) is maintained in the laboratory by mechanical intraperitoneal sub-passage every three days in Swiss mice. The infection inoculum is prepared by taking blood collected from a clinically ill donor mouse and diluted in pH 7.2 PBS to obtain an infection inoculum of about 10^5 trypanosomes/ml suspension. Mice are infected by intraperitoneal injection of 0.1 ml of parasite suspension (=10^4 parasites).
Test substances: The reference compound is melarsoprol.
Test compounds are analytically pure compounds.
Formulations: The compounds are formulated in 100% DMSO. Clear solutions should be obtained. The stock solution is divided in aliquots and stored at −20° C. until use. Aliquots are thawed immediately before treatment. The reference compound melarsoprol is formulated in PBS and stored at −20° C.
Treatment: The first dosing with the test compounds was given approx. 3 hours after artificial infection. • Melarsoprol (Arsobal®): 6 infected mice intraperitoneally treated with 1 mg/kg×4 consecutive days. • Test compounds: 6 infected mice per AMTD×1-5 consecutive days. • Controls: 10 infected mice receiving vehicle only (0.1-0.2 ml) Evaluation Parameters:
Parasitemia was checked microscopically from blood collected at the tail of the mice 2 days after the treatment, and every two days until 30 days post-treatment in case of survival. The trypanocidal activity was evaluated by the mean survival time of treated mice for each dose comparatively to survival time of mice treated with the vehicle alone. Treatment was considered to be successful when the mean survival time exceeds 30 days and the mice remains aparasitemic. […] Cure rate are expressed as percentages.

[2] = test system: Leishmania infantum MHOM/MA (BE)/67 strain; assay: In vitro Leishmania infantum assay, intracellular amastigotes in primary peritoneal mouse macrophages; type: cell-based; conditions: L. infantum amastigotes in mouse macrophages, 5 d incubation, reference drug, read-out: IC50 (50% inhibitory concentration), reduction in parasite burden
Protocol: (§1) The Leishmania infantum MHOM/MA (BE)/67 strain is used. The strain is maintained in the Golden Hamster and spleen amastigotes are collected for preparing infection inocula. Primary peritoneal mouse macrophages are used as host cell and are collected 2 d after peritoneal stimulation with a 2% potato starch suspension. […] After 5 d incubation, parasite burdens (mean number of amastigotes/macrophage) are microscopically assessed after Giemsa staining.

[3] = test system: Trypanosoma brucei brucei Squib 427 strain (suramin-sensitive); assay: In vitro Trypanosoma brucei brucei growth assay (resazurin); type: cell-based
Protocol: The strain is maintained in Hirumi (HMI-9) medium, supplemented with 10% FCSi. […] After 3 d incubation, parasite growth is assessed fluorimetrically after addition of resazurin. After 24 h at 37° C., fluorescence is measured (λex 550 nm, λem 590 nm).

MRC-5SV2 cells = assay: Cytotoxicity against human cell lines (resazurin); conditions: human lung fibroblasts MRC-5
[4] = test system: Trypanosoma cruzi, Tulahuen CL, β galactosidase strain (nifurtimox-sensitive); assay: In vitro Trypanosoma cruzi assay on MRC-5 cells (CPRG); type: cell-based; conditions: for trypanocidal activity against T. cruzi (in words): in vitro
Protocol: Trypanosoma cruzi, Tulahuen CL, β galactosidase strain (nifurtimox-sensitive) is used. The strain is maintained on MRC-5SV2 (human lung fibroblast) cells in MEM medium, supplemented with […] L-glutamine, 16.5 mM NaHCO3, and 5% FCSi. All cultures and assays are conducted at 37° C. under an atmosphere of 5% CO2. Assays are performed in sterile 96-well microtiter plates, each well containing 10 μl of the watery compound dilutions together with 190 μl of MRC-5 cell/parasite inoculum (2·10^4 cells/ml±2·10^5 parasites/ml). Parasite growth is compared to untreated-infected controls (100% growth) and non-infected controls (0% growth) after 7 d incubation. Parasite burdens are assessed after adding the substrate CPRG (chlorophenolred β-D-galactopyranoside): 50 μl/well of a stock solution containing 15.2 mg CPRG+250 μl Nonidet in 100 ml PBS. The change in color is measured spectrophotometrically at 540 nm after 4 h incubation at 37° C.

[5] = test system: human African trypanosomiasis (HAT); conditions: cited from earlier work
[6] = test system: Primary peritoneal mouse macrophages; assay: Toxicity against mouse macrophages (host cells of the L. infantum assay); type: cell-based; conditions: mouse macrophages (L. inf)
Protocol: as §1

[7] = test system: bloodstream forms of T. brucei; conditions: cited from earlier work
[8] = test system: procyclic forms of T. b. brucei; conditions: cited from earlier work
[9] = test system: promastigotes of L. major; conditions: cited from earlier work
[10] = Stability of the compound (HPLC analysis, light); type: physicochemical
[11] = one single dose at 50 mg/kg i.p.

Row | SMILES | trypanocidal activity against T. brucei (in words) [3] | toxicity against mammalian (MRC-5) cells (in words) (MRC-5SV2 cells) | trypanocidal activity against T. cruzi (in words) [4] | further results
1 | COc1ccc(O)c(/C=C/C(=O)/C=C/c2cc(OC)ccc2O)c1 [NW327.2, (1E,4E)-1,5-Bis(2-hydroxy-5-methoxyphenyl)penta-1,4-dien-3-one] |  |  |  | parasitemia [1, 11]: 0%; parasitemia ([1]; two doses over a two days-period, 25 mg/kg i.p.): 0%
2 | O=C(O)[C@@H]1[O][Sb](=[O])([O][Sb]2(=[O])[O][C@H]([C@H](O)CO)[C@H](O)[C@H](C(=O)O)[O]2)[O][C@H]([C@H](O)CO)[C@@H]1O.[Na+].[Na+].[Na+] (some centres unmarked) [Pentostam] |  |  |  | IC50 [2]: 6.8 ± 0.9 µM
3 | O=C(/C=C/c1cccnc1)/C=C/c1cccnc1 [NW321, (1E,4E)-1,5-Di(pyridin-3-yl)penta-1,4-dien-3-one Dihydrochloride] | excellent trypanocidal activity | high cytotoxicity | excellent trypanocidal activity | parasitemia [1, 11]: 0%
4 | Nc1nc(N)nc(Nc2ccc([As]3SCC(CO)S3)cc2)n1 (centres unmarked) [melarsoprol] |  |  |  | failure rate after treatment ([5]; late stage case of human African trypanosomiasis): under 7%; overall mortality due to the drug itself ([5]; therapy of late-stage encephalitic disease, patients): more than 5%
5 | COc1cc(/C=C/C(=O)/C=C/c2ccc(O)c(OC)c2)ccc1O [NW300, (1E,4E)-1,5-Bis(4-hydroxy-3-methoxyphenyl)penta-1,4-dien-3-one] | excellent antitrypanosomal activity | very high cytotoxicity |  | 
6 | N#Cc1ccc(/C=C/C(=O)/C=C/c2ccc(C#N)cc2)cc1 [NW307.2, (1E,4E)-1,5-Bis(4-cyanophenyl)penta-1,4-dien-3-one] | excellent activity | without any cytotoxicity | excellent activity | 
7 | O=C(/C=C/c1ccc(OC(F)(F)F)cc1)/C=C/c1ccc(OC(F)(F)F)cc1 [NW254, (1E,4E)-1,5-Bis(4-trifluoromethoxy-phenyl)-penta-1,4-dien-3-one] | excellent antitrypanosomal activities | without any toxicity | excellent antitrypanosomal activities | toxicity against mouse macrophages (in words) [6]: without any toxicity
8 | O=C(/C=C/c1ccncc1)/C=C/c1ccncc1 [NW319, (1E,4E)-1,5-Di(pyridin-4-yl)penta-1,4-dien-3-one Dihydrochloride] | excellent trypanocidal activity | high cytotoxicity | excellent trypanocidal activity | parasitemia [1, 11]: 0%; parasitemia ([1]; two doses over a two days-period, 12.5 mg/kg i.p.): 0%
9 | COc1cc(/C=C/C(=O)CC(=O)/C=C/c2ccc(O)c(OC)c2)ccc1O [Curcumin] |  |  |  | cytotoxicity against bloodstream forms of T. brucei relative to procyclic forms [7]: 10 times; LD50 [8]: 46.5 ± 4.9 µM; LD50 [9]: 37.6 ± 3.5 µM
10 | O=C(/C=C/c1ccc(O)c(OC(F)(F)F)c1)/C=C/c1ccc(O)c(OC(F)(F)F)c1 [NW317, (1E,4E)-1,5-Bis(4-hydroxy-3-(trifluoromethoxy)phenyl)penta-1,4-dien-3-one] |  |  |  | light sensitivity (in words) [10]: Light-sensitive
11 | O=C(/C=C/c1ccccn1)/C=C/c1ccccn1 [BJ621] | excellent trypanocidal activity | high cytotoxicity | excellent trypanocidal activity | 
12 | O=C(/C=C/c1ccc(C(F)(F)F)cc1)/C=C/c1ccc(C(F)(F)F)cc1 [NW267, (1E,4E)-1,5-Bis(4-trifluoromethyl-phenyl)-penta-1,4-dien-3-one] | excellent antitrypanosomal activities | without any toxicity | excellent antitrypanosomal activities | toxicity against mouse macrophages (in words) [6]: without any toxicity
13 | COc1cc(Br)c(O)c(/C=C/C(=O)/C=C/c2cc(OC)cc(Br)c2O)c1 [NW326.4, (1E,4E)-1,5-Bis(3-bromo-2-hydroxy-5-methoxyphenyl)penta-1,4-dien-3-one] |  |  |  | decomposition ([10]; HPLC analysis, after 5 days): 60%
14 | CC1CS(=O)(=O)CCN1/N=C/c1ccc([N+](=O)[O-])o1 (centres unmarked) [Nifurtimox, reference compound] |  |  |  | IC50 ([4]; Trypanosoma cruzi, MRC5, 168 h, T. cruzi Tulahuen CL on MRC-5 cells, 7 d incubation, reference drug, read-out: IC50, reduction in parasite burdens): 0.845 ± 0.2 µM
15 | CN1C(c2ccncc2)CC(=O)CC1c1ccncc1 (centres unmarked) [BJ591, 1-Methyl-2,6-di(pyridine-4-yl)piperidin-4-one] |  | much less cytotoxicity |  | toxicity against mouse macrophages (in words) [6]: much less cytotoxicity
16 | O=C1C[C@H](c2ccncc2)S[C@@H](c2ccncc2)C1 (relative stereo) [TG003A23, trans-2,6-di(pyridin-4-yl)dihydro-2H-thiopyran-4(3H)-one] |  | much less cytotoxicity |  | toxicity against mouse macrophages (in words) [6]: much less cytotoxicity
17 | CCCCCCCCCCCCCCCCOP(=O)([O-])OCC[N+](C)(C)C [miltefosine] |  |  |  | IC50 ([2]; Leishmania infantum, Macrophage, 120 h): 5.2 ± 0.8 µM
18 | CN1C(c2ccccc2)CC(=O)CC1c1ccccc1 (stereo not drawn) [NW249.1, meso-1-Methyl-2,6-diphenyl-piperidin-4-one] | high trypanocidal activity | low toxicity |  | toxicity against mouse macrophages (in words) [6]: without any toxicity
